Laboratory results as given in US8790653B2, “Peptide inhibitors for mediating stress responses” (Yeda Research and Development Co. Ltd., priority 2004, dated 2014).
Where no end group is shown, it is not given here. [ ]: non-standard residue; d: D form.

Legend:
L12 cells with p53 = experiment: Hyperthermia-induced cell death in L12 cells with active p53 (trypan blue); format: cell-based; details: 2 hours at 42° C., peptide 100 μg/ml
Experimental: The selected candidate peptides were tested for their ability to interfere with the p53-mediated cellular stress response by testing their capacity to inhibit the response to hyperthermia of the L12 cell line (Wolf, 1984), which lacks endogenous p53 activity and had been stably transfected with the p53 gene or a control vector. In these cells, p53 activity induces growth arrest and cell survival rather than apoptosis in response to hyperthermia (Nitta, 1997).
The amount of cell death was assessed by staining the cells with the vital dye trypan blue (Sigma) and counting the ratio of dead/live cells per visual field with a light microscope.
incubation for 2 hours at 42° C. induced death of all cells that lacked p53 and, in contrast, transient growth arrest and survival of about 80% of the cells with active p53. Four peptides, designated Stressin-1 to −4 (for STress RESponse Specific peptide INhibitor), were identified that at concentrations of 100 μg/ml inhibited p53-mediated growth arrest after hyperthermia and induced death of almost all cells with active p53, which is the response of L12 cells that lack p53 activity (Table 1); the peptide sequences are shown in Table 2.

L12 cells = experiment: Cisplatin-induced p53-mediated cell death of L12 cells (DNA content, propidium iodide, FACS); format: cell-based; details: 50 μM Cisplatin, 48 hours
Experimental: L12 cells were treated for 48 hours with 50 μM of the DNA-damaging agent Cisplatin and p53-mediated cell death was determined by measuring the DNA content of cells stained with propidium iodide (FIG. 1). Cells incubated in the absence of peptide responded to Cisplatin treatment with p53-mediated cell death.

[1] = Ethanol toxic stress in primary hepatocyte cultures (trypan blue exclusion); format: cell-based; details: primary hepatocyte cultures
Experimental: (§1) To learn whether Stressin peptide may protect from toxic stress, primary hepatocyte cultures were incubated with or without ethanol at a concentration of 0.6%, and with 50 μM Stressin-1 or without peptide. After 48 hours, the numbers of dead and alive cells were determined by trypan blue exclusion (Table 3).

[2] = test system: primary hepatocyte cultures; experiment: as above; format: cell-based; details: with 0.6% ethanol; 50 μM peptide; 48 hours
Experimental: as §1

BALB/c mice = experiment: Whole body γ-irradiation of BALB/c mice (radiation disease); format: in vivo; details: 6.5 Gy, 500 μg/mouse intraperitoneally one hour after irradiation
From the text: To test whether Stressin peptide may protect an organism from death by excessive p53 activation and tissue failure by subjecting BALB/c mice to whole body […] (6.5 Gy). A retro-inverso peptide was used to determine whether prolonged in vivo half-life would give an advantage (see Example 6); retro-inverso peptides are resistant to proteases and consist of D-amino acids in reversed order, resulting in an altered peptide backbone but unchanged orientation of the side chains (Van Regenmortel, 1998).
BALB/c mice were subjected to whole body γ-irradiation (6.5 Gy). One hour after irradiation, the mice received intraperitoneally either Stressin-1 (n=7; SEQ ID NO:1) or a modified, retro-inverso Stressin-1 peptide (n=7; SEQ ID NO:5), both at a concentration of 500 μg/mouse, or a sham injection with saline (n=6). The retro-inverso peptide was used to determine whether prolonged in vivo-half-life would give an advantage.

DLSTDALHYRTA [Stressin-2]
Incidence of cell death induced by hyperthermia (L12 cells with p53): 90% | cells rescued from p53-mediated cell death (L12 cells): 25%

HPTNQQSLWRWP [Stressin-3]
Incidence of cell death induced by hyperthermia (L12 cells with p53): 80%

LPPLPYP [Stressin-1, LPPLPYP]
viability at 48 h, 50 µM [1]: 100% | Survival of hepatocytes [2]: 20%

PYPLPPL ([dP][dY][dP][dL][dP][dP][dL]; also: retro-inverso) [modified Stressin-1 peptide, retro-inverso Stressin-1 peptide, D-amino acids in reversed order]
mice dead (BALB/c mice; after 17 days): 29% | mice recovered from radiation disease (BALB/c mice; after 40 days): 57%

SSLSVDYPTRYP [Stressin-4]
Incidence of cell death induced by hyperthermia (L12 cells with p53): 80%
